Where two headings read alike, the source gives them in different places.
Columns and labels:
MCF-7 = assay: In vitro antiproliferative MTT assay on MCF-7; assay type: cell-based, human; conditions: Homo sapiens, MCF7, up to 72 hours, mean of two independent measurements with three replicates each, read-out: Calculated IC50 ± SEM, MCF-7
Source text: (§1) Gynecological cancer cell lines of human origin including breast cancer like the triple negative MDA-MB-231 and estrogen receptor positive MCF-7, […] cervical adenocarcinoma (HeLa), and human glioblastoma (U-87) cell lines were used as in vitro models to study the antiproliferative effects of the evaluated compounds. All cell lines were cultivated in T-75 flasks in a minimal essential medium (MEM) supplemented with 10% heat-inactivated fetal bovine serum (FBS), 1% antibiotic-antimycotic mixture (penicillin-streptomycin-amphotericin B) and 1% non-essential amino acids. Non-cancerous human lung fibroblast cell line (MRC-5) was maintained in low glucose Dulbecco’s Modified Eagle Medium (DMEM) supplemented with 20% heat-inactivated FBS, 1% antibiotic-antimycotic mixture and 4 mM L-glutamine. The cells were incubated at 37°C in 5% CO^2 incubator. The cells were seeded in 96-well plates at a density of 5 x 10^3 in 100 μL per well, except for the U-87 and MRC-5 that were seeded at 1 x 10^4 density and incubated at the same conditions for overnight to allow the cells’ attachment to the well’s bottom before the treatment.
(§2) The compounds were dissolved in dimethyl sulfoxide (DMSO) as 10 mM standard stock solutions and kept at -20°C with minimum light exposure. Immediately before each experiment, the stock solution was used and diluted with a culture medium to get the final concentrations. The values of half-maximal inhibitory concentration (IC50) were determined by exposure of the cells into eight different concentrations of each tested compound (0.39, 0.78, 1.56, 3.125, 6.25, 12.5, 25 and 50 μM). Temozolomide (TMZ) and cisplatin were used as positive controls in the case of U-87 and the gynecological cell lines, respectively. The negative control wells included the cells with only MEM treatment. The plates were incubated for up to 72 hours under the same abovementioned incubation conditions. The colorimetric MTT assay was used to assess the compounds’ effect on cell proliferation. Briefly, 20 μL of MTT solution ([3-(4,5-dimethylthiazol-2-yl)-2,5-diphenyltetrazolium bromide], 5 mg/mL in PBS, Duchefa Biochemie BV, Haarlem, The Netherlands) was added to each well including the negative controls and kept under the usual incubation circumstances for additional four hours. Subsequently, the media was carefully aspirated and 100 μL of DMSO was added to each well and the plates were gently shaken for 30 min to solubilize the precipitated crystals of purple formazan. Absorbance was measured at a wavelength of 545 nm using a microplate UV-VIS reader (SPECTROstar Nano, BMG Labtech GmbH, Offenburg, Germany). The same procedure was performed using MRC-5 cells to determine the cancer selectivity of the most promising test compounds.
(§3) Cell viability data were collected from two separate experiments in triplicates and evaluated using GraphPad Prism 9.5.1 (GraphPad Software Inc., San Diego, CA, USA). The half-maximal inhibitory concentration (IC50) values were determined using the log inhibitor vs normalized response nonlinear regression model. Difference between the IC50 values of a hybrid and its corresponding fragments’ experimental combination was statistically evaluated using unpaired T-test. Cancer selectivity of the most promising test compounds was characterized by calculating and comparing their selectivity index (SI). The value of the parameter derives from the ratio of IC50 value of test compound on MRC-5 cells and that on U-87 cells. The higher the value, the better the cancer selectivity of the test compound.

U-87 glioblastoma cells = assay: In vitro antiproliferative MTT assay on U-87; assay type: cell-based, human; conditions: Homo sapiens
Source text: as §1, §2, §3

HeLa = assay: In vitro antiproliferative MTT assay on HeLa; assay type: cell-based, human; conditions: Homo sapiens, HeLa, up to 72 hours, mean of two independent measurements with three replicates each, read-out: Calculated IC50 ± SEM, HeLa
Source text: as §1, §2, §3

MDA-MB-231 = assay: In vitro antiproliferative MTT assay on MDA-MB-231; assay type: cell-based, human; conditions: Homo sapiens, MDA-MB-231, up to 72 hours, mean of two independent measurements with three replicates each, read-out: Calculated IC50 ± SEM, MDA-MB-231
Source text: as §1, §2, §3

U-87 cells = assay: Combination assay: equimolar fragment mixtures vs hybrids on U-87; assay type: cell-based, human; conditions: for Hybrid vs corresponding 1:1 fragment mixture, antiproliferative activity in words: U-87 cells
Method: as §2
Combination study was performed by treating cells with equimolar mixtures of the abovementioned fragments or their hybrids, and corresponding cell viability data were comparatively evaluated. In this bioassay, at least two separate experiments were performed, each in triplicate. The dataset was then subjected to appropriate statistical analysis. The calculated IC50 values were subsequently employed to quantitatively assess the extent of pharmacological benefit obtained through the hybridization of fragments in comparison to the cytotoxic effect produced by the experimental combination of PA or its derivatives and TQ fragments.
as §3

[1] = test system: MDA-MB-231, MCF-7, HeLa, U-87; assay: In vitro antiproliferative MTT assay, cancer cell line panel; assay type: cell-based; conditions: Homo sapiens; all tested cancer cell lines; read-out: IC50 values against cancer cells (range over cell lines)
Source text: Gynecological cancer cell lines of human origin including breast cancer like the triple negative MDA-MB-231 and estrogen receptor positive MCF-7, […] cervical adenocarcinoma (HeLa), and human glioblastoma (U-87) cell lines were used as in vitro models to study the antiproliferative effects of the evaluated compounds. All cell lines were cultivated in T-75 flasks in a minimal essential medium (MEM) supplemented with 10% heat-inactivated fetal bovine serum (FBS), 1% antibiotic-antimycotic mixture (penicillin-streptomycin-amphotericin B) and 1% non-essential amino acids. […]
The compounds were dissolved in dimethyl sulfoxide (DMSO) as 10 mM standard stock solutions and kept at -20°C with minimum light exposure. […] Absorbance was measured at a wavelength of 545 nm using a microplate UV-VIS reader (SPECTROstar Nano, BMG Labtech GmbH, Offenburg, Germany). […]
Cell viability data were collected from two separate experiments in triplicates and evaluated using GraphPad Prism 9.5.1 (GraphPad Software Inc., San Diego, CA, USA). The half-maximal inhibitory concentration (IC50) values were determined using the log inhibitor vs normalized response nonlinear regression model. Difference between the IC50 values of a hybrid and its corresponding fragments’ experimental combination was statistically evaluated using unpaired T-test. […]

[2] = test system: MRC-5 non-cancerous human lung fibroblast cell line; assay: In vitro antiproliferative MTT assay on MRC-5 (cancer selectivity); assay type: cell-based; conditions: for IC50: MRC5, Table 3, non-cancerous human lung fibroblasts, read-out: Calculated IC50 ± SEM, MRC-5; for Selectivity index SI = IC50 (MRC-5)/IC50 (U-87): MRC-5 vs U-87
Source text: as §1, §2, §3

[3] = MTT, up to 72 hours, mean of two independent measurements with three replicates each, read-out: Calculated IC50 ± SEM, U-87
[4] = Table 3, U-87 glioblastoma, read-out: Calculated IC50 ± SEM, U-87 (Table 3)

Row | Structure (SMILES) | IC50 (MCF-7) | IC50 (U-87 glioblastoma cells; [3]) | IC50 (HeLa) | IC50 (MDA-MB-231) | Hybrid vs corresponding 1:1 fragment mixture, antiproliferative activity in words (U-87 cells) | IC50 [1] | Fold stronger activity of hybrid than 1:1 mixture of its fragments (U-87 cells; U-87 glioblastoma cells, hybrid vs mixture of fragments 4 and 6) | IC50 (U-87 glioblastoma cells; [4]) | IC50 [2] | Selectivity index SI = IC50 (MRC-5)/IC50 (U-87) [2]
1 | CC1=C(CCC(=O)Oc2cc(O)c3c(=O)cc(C4(O)C=CC(=O)C=C4)oc3c2)C(=O)C(C(C)C)=CC1=O [Compound 10] | 1.65 ± 0.07 µM | 6.16 ± 0.49 µM | 2 ± 0.26 µM | 1.27 ± 0.04 µM |  |  |  |  |  | 
2 | COC1(c2cc(=O)c3c(O)cc(OC(=O)CCC4=C(C)C(=O)C=C(C(C)C)C4=O)cc3o2)C=CC(=O)C=C1 [Compound 11, 5-hydroxy-2-(1-methoxy-4-oxocyclohexa-2,5-dien-1-yl)-4-oxo-4H-chromen-7-yl 3-(5-isopropyl-2-methyl-3,6-dioxocyclohexa-1,4-dien-1-yl)propanoate] | 2.66 ± 0.11 µM | 7.63 ± 0.46 µM | 3.51 ± 0.17 µM | 2.25 ± 0.13 µM | synergism |  |  |  |  | 
3 | CCOC1(c2cc(=O)c3c(O)cc(OC(=O)CCC4=C(C)C(=O)C=C(C(C)C)C4=O)cc3o2)C=CC(=O)C=C1 [Compound 12, 2-(1-ethoxy-4-oxocyclohexa-2,5-dien-1-yl)-5-hydroxy-4-oxo-4H-chromen-7-yl 3-(5-isopropyl-2-methyl-3,6-dioxocyclohexa-1,4-dien-1-yl)propanoate] | 3.21 ± 0.07 µM | 8.22 ± 0.73 µM | 2.35 ± 0.15 µM | 2.15 ± 0.08 µM |  |  |  |  |  | 
4 | CCCCOC1(c2cc(=O)c3c(O)cc(OC(=O)CCC4=C(C)C(=O)C=C(C(C)C)C4=O)cc3o2)C=CC(=O)C=C1 [Compound 13, 2-(1-butoxy-4-oxocyclohexa-2,5-dien-1-yl)-5-hydroxy-4-oxo-4H-chromen-7-yl 3-(5-isopropyl-2-methyl-3,6-dioxocyclohexa-1,4-dien-1-yl)propanoate] | 1.68 ± 0.16 µM | 3.43 ± 0.25 µM | 1.4 ± 0.25 µM | 0.99 ± 0.05 µM |  |  |  |  |  | 
5 | CC1=CC(=O)C(C(C)C)=C(CCC(=O)Oc2cc(O)c3c(=O)cc(C4(O)C=CC(=O)C=C4)oc3c2)C1=O [Compound 14, 5-hydroxy-2-(1-hydroxy-4-oxocyclohexa-2,5-dien-1-yl)-4-oxo-4H-chromen-7-yl 3-(2-isopropyl-5-methyl-3,6-dioxocyclohexa-1,4-dien-1-yl)propanoate] | 1.2 ± 0.03 µM | 1.16 ± 0.2 µM | 1.06 ± 0.08 µM | 0.52 ± 0.02 µM | synergism | 0.51 to 1.2 µM | ca. three | 1.16 ± 0.2 µM | 5.1 ± 0.21 µM | 4.40
6 | COC1(c2cc(=O)c3c(O)cc(OC(=O)CCC4=C(C(C)C)C(=O)C=C(C)C4=O)cc3o2)C=CC(=O)C=C1 [Compound 15, 5-hydroxy-2-(1-methoxy-4-oxocyclohexa-2,5-dien-1-yl)-4-oxo-4H-chromen-7-yl 3-(2-isopropyl-5-methyl-3,6-dioxocyclohexa-1,4-dien-1-yl)propanoate] | 5.44 ± 1.32 µM | 18.9 ± 3.42 µM | 6.78 ± 0.28 µM | 3.53 ± 0.17 µM | no apparent difference |  |  |  |  | 
7 | CCOC1(c2cc(=O)c3c(O)cc(OC(=O)CCC4=C(C(C)C)C(=O)C=C(C)C4=O)cc3o2)C=CC(=O)C=C1 [Compound 16, 2-(1-ethoxy-4-oxocyclohexa-2,5-dien-1-yl)-5-hydroxy-4-oxo-4H-chromen-7-yl 3-(2-isopropyl-5-methyl-3,6-dioxocyclohexa-1,4-dien-1-yl)propanoate] | 4.11 ± 0.34 µM | 6.06 ± 0.4 µM | 1.71 ± 0.16 µM | 1.98 ± 0.06 µM | no apparent difference |  |  |  |  | 
8 | CCCCOC1(c2cc(=O)c3c(O)cc(OC(=O)CCC4=C(C(C)C)C(=O)C=C(C)C4=O)cc3o2)C=CC(=O)C=C1 [Compound 17, 2-(1-butoxy-4-oxocyclohexa-2,5-dien-1-yl)-5-hydroxy-4-oxo-4H-chromen-7-yl 3-(2-isopropyl-5-methyl-3,6-dioxocyclohexa-1,4-dien-1-yl)propanoate] | 2.7 ± 0.09 µM | 8.65 ± 1.15 µM | 3.08 ± 0.46 µM | 1.08 ± 0.08 µM |  |  |  |  |  | 
9 | Cn1nnc2c(C(N)=O)ncn2c1=O [TMZ, temozolomide, reference compound] |  | 388 ± 43 µM |  |  |  |  |  | 388 ± 43 µM | 1090 ± 45.1 µM | 2.82
